58 molecules from US20170007608A1, “ACTIVATORS OF PYRUVATE KINASE M2 AND METHODS OF TREATING DISEASE” (AGIOS PHARMACEUTICALS, INC, priority 2011, published 2017) can be followed below.

The structures appear in SMILES notation. Bounds are passed on as bounds.

PKM2, sequence (P14618 whole entry): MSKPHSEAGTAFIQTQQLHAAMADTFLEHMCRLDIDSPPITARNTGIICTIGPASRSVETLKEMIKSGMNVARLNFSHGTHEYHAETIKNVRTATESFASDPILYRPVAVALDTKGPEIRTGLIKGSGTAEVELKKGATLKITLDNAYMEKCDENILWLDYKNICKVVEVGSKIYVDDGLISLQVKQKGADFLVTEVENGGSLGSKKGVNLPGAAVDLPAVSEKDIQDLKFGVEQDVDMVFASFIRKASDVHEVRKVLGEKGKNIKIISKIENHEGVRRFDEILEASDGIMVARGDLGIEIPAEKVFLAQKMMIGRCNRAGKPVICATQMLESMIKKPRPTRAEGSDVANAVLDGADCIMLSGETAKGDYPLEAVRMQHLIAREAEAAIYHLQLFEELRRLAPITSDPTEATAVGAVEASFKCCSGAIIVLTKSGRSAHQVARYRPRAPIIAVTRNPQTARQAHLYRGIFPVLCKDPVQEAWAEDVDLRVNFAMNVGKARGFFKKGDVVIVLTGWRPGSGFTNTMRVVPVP

One data set concerns the target PKM2 (Homo sapiens, UniProt P14618). As to the kind of experiment: PKM2 Assay Procedure (LDH/NADH-coupled, absorbance at 340 nm). In kind it is biochemical. Conditions: Table 1; PKM2 activation. Here is the method: B refers to an activator of PKM2 with an AC50 between 100 nM and 500 nM. C refers to an activator of PKM2 with an AC50 greater than 500 nM. AC50s described here in Tables 1 and 2 and FIGS. 1 and 2A-2D are measured according to the “PKM2 Assay Procedure” below.
• PKM2 stock enzyme solution was diluted in Reaction Buffer • 2 μL of compound was added into each well first, and then 180 μL of the Reaction Mix was added. • Reaction mixture with compound (without ADP) were incubated for 30 minutes at 4° C. • Plates were re-equilibrated to room temperature prior to adding 20 μL ADP to initiate the reaction. • Reaction progress was measured as changes in absorbance at 340 nm wavelength at room temperature (25° C.)
Molecule `Nc1cccc(S(=O)(=O)N2CCCN(S(=O)(=O)c3cccc4c3OCCO4)CC2)c1` gave an AC50 of under 100 nM.
On the same count and under the same terms, the value for `COc1ccccc1N1CCN(C(=O)c2ccc(NS(=O)(=O)c3ccc(Cl)c4nonc34)cc2)CC1` was over 500 nM; that for `O=C(c1ccc(NS(=O)(=O)c2cccc3cccnc23)cc1)N1CCN(c2ccccc2)CC1` was under 100 nM; that for `N#Cc1ccccc1CN1CCN(C(=O)c2ccc(NS(=O)(=O)c3cccc4cccnc34)cc2)CC1` was under 100 nM.
The same measure, in the same setting: the value for `O=C(c1ccc(NS(=O)(=O)c2cccc3cccnc23)cc1)N1CCN(Cc2ccccc2)CC1` was under 100 nM.
The same measure, in the same setting: under `N#Cc1cccc(CN2CCN(C(=O)c3ccc(NS(=O)(=O)c4cccc5cccnc45)cc3)CC2)c1` stands under 100 nM; under `O=S(=O)(Nc1ccc(F)c(Cl)c1)c1cncn1-c1cnccn1`, under 100 nM; under `Cc1cc2c(s1)c1cnn(Cc3ccccc3F)c(=O)c1n2C`, under 100 nM.
`O=C(c1ccc(NS(=O)(=O)c2cccc3cccnc23)cc1)N1CCN(Cc2ccccc2Cl)CC1` gave a concentration at half-maximal activity (AC50) of under 100 nM.
On the same count and under the same terms, the value for `COc1ccccc1CN1CCN(C(=O)c2ccc(NS(=O)(=O)c3cccc4cccnc34)cc2)CC1` was under 100 nM.
On to `Cc1cc(C)cc(NS(=O)(=O)c2ccnn2-c2ncc(C(F)(F)F)cc2Cl)c1`, for which the concentration at half-maximal activity (AC50) is under 100 nM.
The same measure, in the same setting: under `O=S(=O)(c1ccc2c(c1)OCCO2)N1CCN(S(=O)(=O)c2c(F)cccc2F)CC1` stands under 100 nM.
Still for that read-out and setting: the value for `Cc1cc(NS(=O)(=O)c2cnn(-c3cnccn3)c2)ccc1F` was 100 to 500 nM; that for `O=C(c1ccc(NS(=O)(=O)c2ccc(Cl)cc2)cc1)N1CCN(c2ncccn2)CC1` was over 500 nM.
Still for that read-out and setting: under `N#Cc1ccc(CN2CCN(C(=O)c3ccc(NS(=O)(=O)c4cccc5cccnc45)cc3)CC2)cc1` stands under 100 nM; under `COc1cccc(CN2CCN(C(=O)c3ccc(NS(=O)(=O)c4cccc5cccnc45)cc3)CC2)c1`, under 100 nM.
On to `Cc1cc(C)cc(NS(=O)(=O)c2ccc3c(c2)oc(=O)n3C)c1`, for which the AC50 was under 100 nM.
On the same count and under the same terms, under `O=S(=O)(Nc1ccccc1C(F)(F)F)c1cccn1-c1ncc(C(F)(F)F)cc1Cl` stands over 500 nM; under `Cc1cc2oc(=O)n(C)c2cc1S(=O)(=O)Nc1cc(F)cc(Cl)c1`, over 500 nM; under `O=C(c1ccc(NS(=O)(=O)c2cccc3cccnc23)cc1)N1CCN(Cc2ccc(Br)cc2)CC1`, under 100 nM.
`CC(=O)c1ccc(CN2CCN(C(=O)c3ccc(NS(=O)(=O)c4cccc5cccnc45)cc3)CC2)cc1` gave an AC50 of 100 to 500 nM.
In turn, `Cn1c(=O)oc2cc(S(=O)(=O)Nc3cccc(Cl)c3)ccc21` registered a half-maximal activity concentration (AC50) of under 100 nM.
The same measure, in the same setting: the value for `O=S(=O)(Nc1ccc(Cl)cc1)c1cncn1-c1cnccn1` was over 500 nM; that for `O=S(=O)(Nc1ccc2c(c1)OCO2)c1cccn1-c1ncc(C(F)(F)F)cc1Cl` was under 100 nM; that for `O=S(=O)(Nc1cc(F)cc(F)c1)c1cccn1-c1ncc(C(F)(F)F)cc1Cl` was over 500 nM.
The same measure, in the same setting: the value for `COc1ccccc1N1CCN(C(=O)c2ccc(NS(=O)(=O)c3cccc4cccnc34)nc2)CC1` was under 100 nM.
Still for that read-out and setting: under `O=C(c1ccc(NS(=O)(=O)c2cccc3cccnc23)cc1)N1CCN(Cc2ccc(Cl)nc2)CC1` stands under 100 nM; under `Cc1cc(C)cc(NS(=O)(=O)c2cccn2-c2ncc(C(F)(F)F)cc2Cl)c1`, under 100 nM; under `Cc1cc(C)cc(NS(=O)(=O)c2cccn2-c2ncccn2)c1`, under 100 nM.
Consider `Cc1cc(NS(=O)(=O)c2cccn2-c2ncc(C(F)(F)F)cc2Cl)ccc1F`, for which the concentration at half-maximal activity (AC50) is under 100 nM.
Still for that read-out and setting: under `COc1ccccc1N1CCCN(C(=O)c2ccc(NS(=O)(=O)c3cccc4cccnc34)cc2)CC1` stands over 500 nM; under `O=C(c1ccc(NS(=O)(=O)c2cccc3cccnc23)cc1)N1CCN(Cc2cccnc2Cl)CC1`, under 100 nM.
On the same count and under the same terms, under `O=S(=O)(Nc1ccc(F)cc1)c1cncn1-c1ccc(C(F)(F)F)cn1` stands over 500 nM; under `Cc1cc2oc(=O)n(C)c2cc1S(=O)(=O)Nc1cccc(Cl)c1`, 100 to 500 nM.
The molecule `COc1ccccc1N1CCN(C(=O)c2ccc(N(C)S(=O)(=O)c3cccc4cccnc34)cc2)CC1` displayed a concentration at half-maximal activity (AC50) of under 100 nM.
The same measure, in the same setting: under `O=C(c1ccc(NS(=O)(=O)c2cccc3cccnc23)cc1)N1CCN(Cc2ccccn2)CC1` stands under 100 nM; under `Cc1cccc(NS(=O)(=O)c2cncn2-c2ncc(C(F)(F)F)cc2Cl)c1`, under 100 nM.
In turn, `COc1ccccc1N1CCN(C(=O)c2ccc(NS(=O)(=O)c3ccc4ccccc4c3)cc2)CC1` returned an AC50 of over 500 nM.
Same read-out and setting: the value for `COc1ccccc1N1CCN(C(=O)c2ccc(NS(=O)(=O)c3ccc4c(c3)OCCO4)cc2)CC1` was 100 to 500 nM; that for `COc1ccccc1N1CCN(C(=O)c2ccc(NS(=O)(=O)c3cccc4cccnc34)cc2)CC1` was under 100 nM; that for `O=S(=O)(Nc1ccc2c(c1)OCCO2)c1cncn1-c1ccc(C(F)(F)F)cn1` was over 500 nM.
The same measure, in the same setting: under `O=S(=O)(Nc1ccc(Cl)cc1)c1cccn1-c1ncc(C(F)(F)F)cc1Cl` stands under 100 nM; under `O=C(c1ccc(NS(=O)(=O)c2cccc3cccnc23)cc1)N1CCN(Cc2ccc(F)cc2)CC1`, under 100 nM.
Still for that read-out and setting: the value for `Cc1cc(C)cc(NS(=O)(=O)c2cncn2-c2ncc(C(F)(F)F)cc2Cl)c1` was under 100 nM; that for `O=C(c1ccc(NS(=O)(=O)c2cccc3cccnc23)cc1)N1CCN(Cc2cccc(Cl)c2)CC1` was under 100 nM; that for `CC(=O)c1ccccc1CN1CCN(C(=O)c2ccc(NS(=O)(=O)c3cccc4cccnc34)cc2)CC1` was under 100 nM.
For `O=C(COc1ccc(-n2cnnn2)cc1)N1CCN(S(=O)(=O)c2ccc3ccccc3c2)CC1`, the AC50 lay within 100 to 500 nM.
On the same count and under the same terms, under `Cc1cc2oc(=O)n(C)c2cc1S(=O)(=O)Nc1ccc(F)c(Cl)c1` stands under 100 nM.
On the same count and under the same terms, under `O=C(c1ccc(NS(=O)(=O)c2cccc3cccnc23)cc1)N1CCN(Cc2ccc(Cl)cc2)CC1` stands under 100 nM.
On the same count and under the same terms, the value for `O=C(c1ccc(NS(=O)(=O)c2cccc3cccnc23)cc1)N1CCN(c2ncccn2)CC1` was 100 to 500 nM.

The same data set, now with this note: Table 2; PKM2 activation.
Regarding `COc1ccc(Cl)cc1S(=O)(=O)Nc1ccc2sc(=O)n(C)c2c1`, the AC50 was in the range of 1000 to 10000 nM.
For `Cc1ccc(OCC(=O)N2CCN(S(=O)(=O)c3cc4oc(=O)n(C)c4cc3C)CC2)cc1`, the concentration at half-maximal activity (AC50) was 1000 to 10000 nM.
Still for that read-out and setting: the value for `COc1ccc(Cl)cc1S(=O)(=O)Nc1ccc2oc(=O)n(C)c2c1` [drawing 91] was under 1000 nM.
Still for that read-out and setting: under `Cn1c(=O)oc2cc(NS(=O)(=O)c3cccs3)ccc21` stands 10000 to 50000 nM; under `COc1ccc(Cl)cc1S(=O)(=O)Nc1ccc2oc(=O)n(C)c2c1` [drawing 74], over 100000 nM.

The next data set relates to A549 cells. As to the kind of experiment: Growth inhibition (GI50) side-by-side in regular RPMI versus BME medium. In kind it is cell-based. Conditions: A549 cells treated for 72 hours. As for the experimental part: FIGS. 9A-9F are graphs depicting the effect of various cytotoxic agents on A549 cell growth in BME.
Cells grown in BME media are not generally more sensitive to cytotoxic agents (FIGS. 9A-9F). A549 cells were grown in RPMI (FIG. 9A, 9B or 9C) or in BME (FIGS. 9D, 9E, and 9F). […] The effect of the PKM2 activators appears to by cytostatic (no induction of apoptosis).
In the case of `CC(=O)O[C@@]12CO[C@@H]1C[C@H](O)[C@@]1(C)C(=O)[C@H](O)C3=C(C)[C@@H](OC(=O)[C@H](O)[C@@H](NC(=O)OC(C)(C)C)c4ccccc4)C[C@@](O)([C@@H](OC(=O)c4ccccc4)[C@H]21)C3(C)C` [docetaxel], the “potency of cytotoxic agent in BME compared with RPMI” value was “decreased potency”.
Still for that read-out and setting: the value for `CC[C@]1(O)C[C@@H]2CN(CCc3c([nH]c4ccccc34)[C@@](C(=O)OC)(c3cc4c(cc3OC)N(C)[C@H]3[C@@](O)(C(=O)OC)[C@H](OC(C)=O)[C@]5(CC)C=CCN6CC[C@]43[C@@H]65)C2)C1` [vinblastine] was “decreased potency”; that for `COc1cccc2c1C(=O)c1c(O)c3c(c(O)c1C2=O)C[C@@](O)(C(=O)CO)C[C@@H]3O[C@H]1C[C@H](N)[C@H](O)[C@H](C)O1` [doxorubicin] was “decreased potency”.
